From the supplement of paper PMC10307832

Compound: CC1=C(C=CC(=C1)[N+](=O)[O-])NS(=O)(=O)C2=C(C=CC(=C2)Cl)Cl [FH535] + O=C(CCCCCCC(=O)Nc1ccccc1)NO [Vorinostat] (partner 1 µM)
Test: relative viability (nuclei count vs DMSO), 5 days (fraction); higher = more cells survive
Method in brief: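 Relative viability is defined as nuclei in treated wells over nuclei in vehicle wells. Duplicate plates were run and medians reported. Lung cancer cell lines in 1536-well plates were dosed by pin tool one day after seeding, with one drug or with a fixed anchor-drug dose plus five library-drug doses (not always all listed) in √10 steps, and nuclei were counted after 5 days.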

Cell Line | relative viability (first compound 0.04 µM) | relative viability (first compound 0.1265 µM) | relative viability (first compound 0.4 µM) | relative viability (first compound 1.265 µM)
201T | 0.905 | 0.948 | 0.855 | 0.929
A-427 | 0.862 | 0.846 | 0.845 | 0.725
ABC-1 | 0.944 | 1 | 0.934 | 0.607
BEN | 0.51 | 0.583 | 0.548 | 0.525
CAL-12T | 0.562 | 0.927 | 0.802 | 0.492
COR-L23 | 0.442 | 0.462 | 0.422 | 0.343
COR-L 105 | 0.793 | 0.857 | 0.848 | 0.876
ChaGo-K-1 | 0.469 | 0.732 | 0.693 | 0.59
EKVX | 0.403 | 0.819 | 0.693 | 0.222
EMC-BAC-2 | 0.297 | 0.449 | 0.419 | 0.308
EPLC-272H | 0.442 | 0.42 | 0.437 | 0.406
H3255 | 0.804 | 0.753 | 0.729 | 0.654
HARA | 0.376 | 0.489 | 0.511 | 0.341
HCC-15 | 0.733 | 0.85 | 0.838 | 0.696
HCC-44 | 1.11 | 1.1 | 1.03 | 0.818
HCC-78 | 0.408 | 0.429 | 0.479 | 0.414
HCC-366 | 0.131 | 0.416 | 0.34 | 0.261
HCC-827 | 0.701 | 0.846 | 0.869 | 0.664
HOP-62 | 0.5 | 0.681 | 0.557 | 0.563
IA-LM | 0.999 | 1.14 | 0.954 | 0.914
LC-2-ad | 0.603 | 0.714 | 0.677 | 0.521
LCLC-97TM1 | 0.203 | 0.568 | 0.706 | 0.745
LCLC-103H | 0.569 | 0.781 | 0.694 | 0.666
LK-2 | 0.166 | 0.301 | 0.29 | 0.485

Cell Line | relative viability (first compound 0.04 µM) | relative viability (first compound 0.1265 µM) | relative viability (first compound 0.4 µM) | relative viability (first compound 1.265 µM)
LOU-NH91 | 0.877 | 0.982 | 0.652 | 0.524
LU99A | 0.356 | 0.484 | 0.487 | 0.464
LXF-289 | 0.58 | 0.762 | 0.698 | 0.574
NCI-H23 | 0.399 | 0.535 | 0.564 | 0.378
NCI-H322M | 0.898 | 0.878 | 0.83 | 0.744
NCI-H358 | 0.588 | 0.778 | 0.664 | 0.43
NCI-H441 | 0.733 | 0.59 | 0.843 | 0.757
NCI-H460 | 0.72 | 0.743 | 0.674 | 0.447
NCI-H520 | 0.546 | 0.723 | 0.81 | 0.714
NCI-H522 | 0.855 | 0.858 | 0.731 | 0.78
NCI-H596 | 0.579 | 0.511 | 0.569 | 0.544
NCI-H647 | 0.442 | 0.63 | 0.408 | 0.462
NCI-H650 | 0.342 | 0.383 | 0.385 | 0.365
NCI-H661 | 0.745 | 0.821 | 0.799 | 0.687
NCI-H727 | 1.17 | 1.15 | 1.1 | 1.22
NCI-H838 | 0.704 | 0.754 | 0.659 | 0.591
NCI-H1355 | 0.574 | 0.631 | 0.565 | 0.534
NCI-H1395 | 0.543 | 0.679 | 0.697 | 0.532
NCI-H1437 | 0.905 | 0.847 | 0.629 | 0.304
NCI-H1650 | 0.492 | 0.564 | 0.509 | 0.441
NCI-H1651 | 0.473 | 0.531 | 0.606 | 0.52
NCI-H1666 | 1.01 | 0.995 | 0.992 | 0.959
NCI-H1734 | 0.547 | 0.784 | 0.822 | 0.778
NCI-H1755 | 0.616 | 0.807 | 0.752 | 0.707

Cell Line | relative viability (first compound 0.04 µM) | relative viability (first compound 0.1265 µM) | relative viability (first compound 0.4 µM) | relative viability (first compound 1.265 µM)
NCI-H1793 | 0.505 | 0.519 | 0.63 | 0.568
NCI-H1915 | 0.44 | 0.481 | 0.534 | 0.532
NCI-H1944 | 0.291 | 0.575 | 0.425 | 0.509
NCI-H1975 | 0.651 | 0.744 | 0.675 | 0.622
NCI-H1993 | 0.822 | 0.801 | 0.606 | 0.57
NCI-H2009 | 0.732 | 0.762 | 0.693 | 0.602
NCI-H2023 | 0.473 | 0.703 | 0.663 | 0.537
NCI-H2085 | 0.815 | 0.849 | 0.659 | 0.62
NCI-H2087 | 0.566 | 0.782 | 0.693 | 0.551
NCI-H2126 | 0.72 | 0.782 | 0.727 | 0.567
NCI-H2170 | 0.713 | 0.816 | 0.768 | 0.69
NCI-H2228 | 0.585 | 0.698 | 0.977 | 0.593
NCI-H2347 | 0.753 | 0.681 | 0.608 | 0.52
NCI-H2405 | 0.945 | 0.965 | 0.776 | 0.458
NCI-H3122 | 0.901 | 1.1 | 0.979 | 0.966
PC-3 [JPC-3] | 0.757 | 0.769 | 0.687 | 0.529
PC-14 | 0.741 | 0.607 | 0.782 | 0.797
RERF-LC-KJ | 0.632 | 0.64 | 0.685 | 0.573
SK-LU-1 | 0.731 | 0.814 | 0.736 | 0.456
SK-MES-1 | 1.1 | 1.19 | 1.02 | 0.918
SW 900 | 0.483 | 0.257 | 0.378 | 0.358
SW 1573 | 0.614 | 0.666 | 1.04 | 0.66
UMC-11 | 0.346 | 0.384 | 0.309 | 0.469
